Where “and” joins values, the source holds several entries; their conditions need not be identical. Equal entries are not always repeated. Where two headings read alike, the source gives them in different places.
Columns and labels:
[1] = Pharmacokinetics of evocalcet after oral administration to male rats; conditions: rat, in vivo; for AUC(0-inf): AUC0-∞
Protocol: The plasma concentrations of evocalcet were determined after single or repeated oral administration in both normal and 5/6 Nx rats. The pharmacokinetic (PK) parameters of the rat plasma concentrations were calculated individually using Phoenix WinNonlin 6.2, a PK analysis software program (Pharsight Corporation, Sunnyvale, CA).

[2] = tested on: serum PTH; assay: 5/6 nephrectomized rats study: serum PTH level; type: in vivo, rat; conditions: 5/6 Nx rats, 0.03 mg/kg
Protocol: Rats were 5/6 nephrectomized in two steps. Under anesthesia (pentobarbital, 50 mg/kg; intraperitoneally) and analgesia (lidocaine; topically), two-thirds of the left kidney was removed, and then the right kidney was removed after a seven-day interval. Seven days after the completion of 5/6 nephrectomy, the FR-2 diet was changed to a high-phosphate diet, containing 0.6% calcium and 0.9% phosphate (Oriental Yeast Co., Ltd., Tokyo, Japan). Approximately 2 weeks after the initiation of the high-phosphate diet, the 5/6 Nx rats were divided into five groups (n = 12/group) matched in terms of their body weight as well as their blood urea nitrogen (BUN) and serum PTH and calcium levels.
In the single-dose study, blood samples were collected from the tail vein before and at 0.5, 2, 4, 8, 24, 48, and 72 h after the oral administration of vehicle (0.5% methyl cellulose solution) or evocalcet (0.03, 0.1, 0.3, or 1 mg/kg). In the repeated-dose study, vehicle or evocalcet was orally administered to the respective groups once daily for 14 days. Blood samples were obtained from the tail vein before the first administration and after the seventh and last administrations.
The serum PTH level was measured using a Rat Intact PTH ELISA kit (Immutopics, Inc., San Clemente, CA). The serum calcium, phosphate and BUN levels were measured using an auto analyzer (Hitachi High-Technologies Corporation., Tokyo, Japan) or the following test kits: the Calcium E-test WAKO, the Phospha C-test WAKO, or the Blood Urea nitrogen B-test WAKO (Wako Pure Chemical Industries, Ltd., Osaka, Japan).

C[C@@H](N[C@H]1CCN(c2ccc(CC(=O)O)cc2)C1)c1cccc2ccccc12 [evocalcet]
bioavailability ([1]; Sprague-Dawley, Bioavailability): > 80% | AUC(0-inf) ([1]; Sprague-Dawley, po, 0.1 mg/kg): 819 ng·h/mL | Cmax ([1]; Sprague-Dawley, po, 0.1 mg/kg): 222 ng/mL | bioavailability ([1]; Sprague-Dawley, po, 0.1 mg/kg, F (bioavailability)): 81.6% | half-life ([1]; Sprague-Dawley, po, 0.1 mg/kg, t1/2): 6.66 h | Tmax ([1]; Sprague-Dawley, po, 0.1 mg/kg, tmax): 0.25 h | AUC(0-inf) ([1]; Sprague-Dawley, po, 0.3 mg/kg): 2580 ng·h/mL | Cmax ([1]; Sprague-Dawley, po, 0.3 mg/kg): 600 ng/mL | bioavailability ([1]; Sprague-Dawley, po, 0.3 mg/kg, F (bioavailability)): 85.6% | half-life ([1]; Sprague-Dawley, po, 0.3 mg/kg, t1/2): 5.77 h | Tmax ([1]; Sprague-Dawley, po, 0.3 mg/kg, tmax): 0.38 h | t1/2 ([1]; Sprague-Dawley, po, 1 mg/kg): 6.13 h | AUC(0-inf) ([1]; Sprague-Dawley, po, 1 mg/kg): 8440 ng·h/mL | Cmax ([1]; Sprague-Dawley, po, 1 mg/kg): 2190 ng/mL | bioavailability ([1]; Sprague-Dawley, po, 1 mg/kg, F (bioavailability)): 84.2% | Tmax ([1]; Sprague-Dawley, po, 1 mg/kg, tmax): 0.81 h | half-life ([1]; normal rats, single oral dose 1 mg/kg, mean, read-out: t1/2 (converted)): 6.13 h | AUC(0-inf) ([1]; po, 0.1 mg/kg): 981 ng·h/mL | Cmax ([1]; po, 0.1 mg/kg): 221 ng/mL | half-life ([1]; po, 0.1 mg/kg, t1/2): 5.71 h | Tmax ([1]; po, 0.1 mg/kg, tmax): 0.25 h | Tmax ([1]; po, 0.3 mg/kg): 0.50 h | AUC(0-inf) ([1]; po, 0.3 mg/kg): 2260 ng·h/mL | Cmax ([1]; po, 0.3 mg/kg): 570 ng/mL | half-life ([1]; po, 0.3 mg/kg, t1/2): 5.68 h | Tmax ([1]; po, 0.3 mg/kg, tmax): 0.25 h | Tmax ([1]; po, 1 mg/kg): 1.00 h | AUC(0-inf) ([1]; po, 1 mg/kg): 7890 ng·h/mL | Cmax ([1]; po, 1 mg/kg): 1810 ng/mL | half-life ([1]; po, 1 mg/kg, t1/2): 6.99 h | Serum PTH levels after the first administration ([2]; 0 h, group mean of 12 rats): 2235.149 | Serum PTH levels after the first administration ([2]; 0 h, individual rat): 3146.838 and 3130.460 and 2411.903 and 1952.597 and 3363.037 and 1097.629 | Serum PTH levels after the first administration ([2]; 0.5 h, group mean of 12 rats): 2132.775 | Serum PTH levels after the first administration ([2]; 0.5 h, individual rat): 4101.960 and 5220.639 and 2506.611 and 3090.422 and 3558.006 and 125.411 | Serum PTH levels after the first administration ([2]; 2 h, group mean of 12 rats): 2186.293 | Serum PTH levels after the first administration ([2]; 2 h, individual rat): 4890.509 and 4068.711 and 2185.504 and 3005.600 and 4664.020 and 345.560 | Serum PTH levels after the first administration ([2]; 4 h, group mean of 12 rats): 2269.553 | Serum PTH levels after the first administration ([2]; 4 h, individual rat): 4679.877 and 4835.119 and 2331.859 and 3883.490 and 3137.288 and 547.391 | Serum PTH levels after the first administration ([2]; 8 h, group mean of 12 rats): 2414.885 | Serum PTH levels after the first administration ([2]; 8 h, individual rat): 5964.855 and 4334.746 and 2555.658 and 4291.517 and 2662.474 and 769.912 | Serum PTH levels after the first administration ([2]; 24 h, group mean of 12 rats): 2792.495 | Serum PTH levels after the first administration ([2]; 24 h, individual rat): 4890.842 and 5921.359 and 2295.822 and 3334.469 and 3685.692 and 634.649 | Serum PTH levels before (day 0) and 24 h after evocalcet administration, Mean ([2]; day 0 (Before), group mean): 2235.149

Source: paper PMC5882164, “A novel calcimimetic agent, evocalcet (MT-4580/KHK7580), suppresses the parathyroid cell function with little effect on the gastrointestinal tract or CYP isozymes in vivo and in vitro” (PLoS ONE, 2018)
